Consider four molecules from patent publication US20260022143A1, “Cyclic Peptide Inhibitors of IL-23” (JANSSEN PHARMACEUTICA NV, priority 2022, published 2026).

Molecules are shown by their SMILES. Positions of bridges follow the written chain, without caps; N, C: chain ends. Non-standard residues stand in square brackets, D forms with d. Residues, ends and D or L forms follow the SMILES beside them. *: point of attachment. Me3N+(CH2)2O(CH2)2O(CH2)2CO = C[N+](C)(C)CCOCCOCCC(=O)*; Trp(7-Me) = Cc1cccc2c(C[C@H](N)C(=O)O)c[nH]c12; 2Nal = N[C@@H](Cc1ccc2ccccc2c1)C(=O)O; AEF = NCCOc1ccc(C[C@H](N)C(=O)O)cc1; 3Pal = N[C@@H](Cc1cccnc1)C(=O)O; Lys(Me) = CNCCCC[C@H](N)C(=O)O; Pen = CC(C)(S)[C@H](N)C(=O)O; X37 = C[N+]1(C)CCN(CC*)CC1; Thp = NC1(C(=O)O)CCOCC1; Aib = CC(C)(N)C(=O)O; Sar = CNCC(=O)O

In one data set the target is T1, IL-23R (Homo sapiens, UniProt Q5VWK5).
T1 construct: host or cells: HEK293
T1 sequence (Q5VWK5 24-629): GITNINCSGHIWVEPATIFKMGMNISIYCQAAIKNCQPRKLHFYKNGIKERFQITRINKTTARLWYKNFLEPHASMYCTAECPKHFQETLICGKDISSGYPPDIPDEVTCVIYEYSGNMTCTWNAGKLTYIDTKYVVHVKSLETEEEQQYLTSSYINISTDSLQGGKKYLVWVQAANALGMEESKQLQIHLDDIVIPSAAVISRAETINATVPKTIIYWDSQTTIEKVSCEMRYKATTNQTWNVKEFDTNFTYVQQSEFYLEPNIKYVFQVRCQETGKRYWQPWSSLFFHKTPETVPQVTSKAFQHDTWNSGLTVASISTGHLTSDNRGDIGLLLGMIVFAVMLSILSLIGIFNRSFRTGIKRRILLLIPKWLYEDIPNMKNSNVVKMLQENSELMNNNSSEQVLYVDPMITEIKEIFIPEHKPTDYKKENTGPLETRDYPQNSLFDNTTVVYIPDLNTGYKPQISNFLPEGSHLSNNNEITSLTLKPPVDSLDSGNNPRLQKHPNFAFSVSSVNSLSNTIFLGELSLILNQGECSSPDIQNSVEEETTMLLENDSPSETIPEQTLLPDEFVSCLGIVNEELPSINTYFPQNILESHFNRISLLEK
Nature of the data set: IL23R Reporter Assay. It is filed as cell-based. As to conditions: HEK293 cells containing IL-23R, IL-12RP1 and STAT-inducible firefly luciferase reporter; 10 ng/mL IL-23 (EC90); 5 h at 37° C.; read-out: IL23R Reporter Assay. In general terms: In a reporter assay the amount or activity of a reporter protein is the signal.

Data set [1] in a line: Exposed Polar Surface Area (EPSA). It is filed as physicochemical. As to conditions: SFC on Chirex 3014 column; sample 1 mM DMSO stock; read-out: EPSA. A digest of the protocol: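 Polarity measured by SFC on a Chirex 3014 column (35 °C, 4 mL/min) with methanol/ammonium formate in CO2 as gradient eluent. Retention times were normalised to EPSA (Å^2) against eight reference compounds.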

In the case of `CC(=O)NCCCC[C@@H]1NC(=O)[C@H](Cc2c[nH]c3c(-c4cccc(NC(C)=O)c4)cccc23)NC(=O)[C@H]([C@@H](C)O)NC(=O)[C@H](CC(N)=O)NC(=O)[C@@H](NC(=O)CCOCCOCC[N+](C)(C)C)C(C)(C)SSC(C)(C)[C@@H](C(=O)N[C@@H](Cc2ccc(OCCNC(=N)N)cc2)C(=O)N[C@@H](Cc2ccc3ccccc3c2)C(=O)NC2(C(=O)N[C@@H](CCCCN(C)C(C)=O)C(=O)N[C@@H](CC(N)=O)C(=O)N[C@@H](Cc3cncc(C)c3)C(=O)N(C)CC(N)=O)CCOCC2)NC1=O` [compound 519, cPEG3aCO-Pen(3)-N-T-7(3NAcPh)W-K(Ac)-Pen(3)-AEF(G)-2Nal-THP-K(NMeAc)-N-3Pya-Sar-CONH2], the IC50 at IL-23R came out at 1.8 nM. Further, the EPSA in data set [1] came out at 186 A^2.
For `CC(=O)N(C)CCCC[C@@H]1NC(=O)[C@H](Cc2c[nH]c3c(C)cccc23)NC(=O)[C@H]([C@@H](C)O)NC(=O)[C@H](CC(=O)N(C)C)NC(=O)[C@@H](NC(=O)CCOCCOCC[N+](C)(C)C)C(C)(C)SSC(C)(C)[C@@H](C(=O)N[C@@H](Cc2ccc(OCCN3CC[N+](C)(C)CC3)cc2)C(=O)N[C@@H](Cc2ccc3ccccc3c2)C(=O)NC2(C(=O)N[C@@H](CCCCN(C)C(C)=O)C(=O)N[C@@H](CC(N)=O)C(=O)N[C@@H](Cc3cccnc3)C(=O)N(C)CC(=O)N(C)C)CCOCC2)NC1=O` [compound 193, cPEG3aCO-Pen(3)-N(N(Me)2)-T-7MeW-K(NMeAc)-Pen(3)-4DMPzEF-2Nal-THP-K(NMeAc)-N-3Pya-Sar-CON(Me)2] ({Me3N+(CH2)2O(CH2)2O(CH2)2CO}-[Pen]D(NMe2)T[Trp(7-Me)][Lys(Me)](Ac)[Pen]Y(X37)[2Nal][Thp][Lys(Me)](Ac)N[3Pal][Sar]-NMe2; disulfide 1-6), on IL-23R, the IC50 was 40 nM. For the same molecule, the EPSA in data set [1] amounted to 135 A^2.
Regarding `CC(=O)NCCCC[C@@H]1NC(=O)[C@H](Cc2c[nH]c3c(C)cccc23)NC(=O)[C@H]([C@@H](C)O)NC(=O)[C@H](CC(N)=O)NC(=O)[C@@H](NC(=O)COCCOCCNC(=O)COCCOCCNC(=O)CCCc2ccc(I)cc2)C(C)(C)SSC(C)(C)[C@@H](C(=O)N[C@@H](Cc2ccc(OCCCCC[N+](C)(C)C)cc2)C(=O)N[C@@H](Cc2ccc3ccccc3c2)C(=O)NC2(C(=O)N[C@@H](CCCCNC(C)=O)C(=O)N[C@@H](CC(N)=O)C(=O)N[C@@H](Cc3cccnc3)C(=O)N(C)CC(N)=O)CCOCC2)NC1=O` [compound 491, IPBPEG2PEG2CO-Pen(3)-N-T-7MeW-K(Ac)-Pen(3)-TMAPF-2Nal-THP-K(Ac)-N-3Pya-Sar-CONH2], on IL-23R, the IC50 turned out to be 8.3 nM. The EPSA in data set [1] stood at 168 A^2.
In the case of `Cc1cccc2c(C[C@@H]3NC(=O)[C@H]([C@@H](C)O)NC(=O)[C@H](CC(=O)N(C)C)NC(=O)[C@@H](NC(=O)CCOCCOCC[N+](C)(C)C)C(C)(C)SSC(C)(C)[C@@H](C(=O)N[C@@H](Cc4ccc(OCCN)cc4)C(=O)N[C@@H](Cc4ccc5ccccc5c4)C(=O)NC4(C(=O)NC(C)(C)C(=O)N[C@@H](CC(N)=O)C(=O)N[C@@H](Cc5cccnc5)C(=O)N(C)CC(=O)N(C)C)CCOCC4)NC(=O)C(C)(C)NC3=O)c[nH]c12` [compound 142, cPEG3aCO-Pen(3)-N(N(Me)2)-T-7MeW-AIB-Pen(3)-AEF-2Nal-THP-AIB-N-3Pya-Sar-CON(Me)2] ({Me3N+(CH2)2O(CH2)2O(CH2)2CO}-[Pen]D(NMe2)T[Trp(7-Me)][Aib][Pen][AEF][2Nal][Thp][Aib]N[3Pal][Sar]-NMe2; disulfide 1-6), the IC50 at IL-23R was 6.6 nM. Also, in data set [1], the EPSA was 166 A^2.
